According to the OligoGym collection:
Oligonucleotides are given in HELM: sugar(base)linkage, 5' to 3'; d 2'-deoxyribose, r ribose, m 2'-O-methylribose, p phosphate. ss, as = sense and antisense strand

target: TMEM63B; experiment: reporter assay of Huesken 2005; details: siRNA
Also: test concentration or dose not given here.

Substance	normalised inhibition (eCFP-eYFP dual reporter) [%]
RNA1{r(U)p.r(C)p.r(C)p.r(G)p.r(A)p.r(G)p.r(G)p.r(C)p.r(U)p.r(U)p.r(C)p.r(A)p.r(U)p.r(C)p.r(U)p.r(G)p.r(G)p.r(U)p.r(G)p.d(T)p.d(T)}|RNA2{r(C)p.r(A)p.r(C)p.r(C)p.r(A)p.r(G)p.r(A)p.r(U)p.r(G)p.r(A)p.r(A)p.r(G)p.r(C)p.r(C)p.r(U)p.r(C)p.r(G)p.r(G)p.r(A)p.d(T)p.d(G)}$$$RNA1{StrandType:ss}|RNA2{StrandType:as}$	29.2
RNA1{r(C)p.r(U)p.r(U)p.r(U)p.r(C)p.r(C)p.r(U)p.r(C)p.r(A)p.r(U)p.r(C)p.r(U)p.r(U)p.r(C)p.r(A)p.r(U)p.r(G)p.r(G)p.r(U)p.d(T)p.d(T)}|RNA2{r(A)p.r(C)p.r(C)p.r(A)p.r(U)p.r(G)p.r(A)p.r(A)p.r(G)p.r(A)p.r(U)p.r(G)p.r(A)p.r(G)p.r(G)p.r(A)p.r(A)p.r(A)p.r(G)p.d(T)p.d(G)}$$$RNA1{StrandType:ss}|RNA2{StrandType:as}$	72.7
RNA1{r(G)p.r(U)p.r(A)p.r(C)p.r(U)p.r(A)p.r(C)p.r(A)p.r(C)p.r(A)p.r(A)p.r(A)p.r(G)p.r(C)p.r(U)p.r(G)p.r(G)p.r(A)p.r(G)p.d(T)p.d(T)}|RNA2{r(C)p.r(U)p.r(C)p.r(C)p.r(A)p.r(G)p.r(C)p.r(U)p.r(U)p.r(U)p.r(G)p.r(U)p.r(G)p.r(U)p.r(A)p.r(G)p.r(U)p.r(A)p.r(C)p.d(T)p.d(C)}$$$RNA1{StrandType:ss}|RNA2{StrandType:as}$	58.4
RNA1{r(A)p.r(C)p.r(C)p.r(A)p.r(G)p.r(G)p.r(U)p.r(G)p.r(G)p.r(U)p.r(G)p.r(G)p.r(C)p.r(C)p.r(G)p.r(C)p.r(G)p.r(C)p.r(C)p.d(T)p.d(T)}|RNA2{r(G)p.r(G)p.r(C)p.r(G)p.r(C)p.r(G)p.r(G)p.r(C)p.r(C)p.r(A)p.r(C)p.r(C)p.r(A)p.r(C)p.r(C)p.r(U)p.r(G)p.r(G)p.r(U)p.d(T)p.d(C)}$$$RNA1{StrandType:ss}|RNA2{StrandType:as}$	57.6
RNA1{r(A)p.r(C)p.r(C)p.r(C)p.r(U)p.r(G)p.r(C)p.r(U)p.r(G)p.r(C)p.r(U)p.r(G)p.r(U)p.r(G)p.r(G)p.r(U)p.r(G)p.r(C)p.r(U)p.d(T)p.d(T)}|RNA2{r(A)p.r(G)p.r(C)p.r(A)p.r(C)p.r(C)p.r(A)p.r(C)p.r(A)p.r(G)p.r(C)p.r(A)p.r(G)p.r(C)p.r(A)p.r(G)p.r(G)p.r(G)p.r(U)p.d(G)p.d(G)}$$$RNA1{StrandType:ss}|RNA2{StrandType:as}$	58.5
RNA1{r(U)p.r(U)p.r(U)p.r(A)p.r(U)p.r(C)p.r(G)p.r(G)p.r(C)p.r(A)p.r(A)p.r(C)p.r(G)p.r(C)p.r(C)p.r(A)p.r(U)p.r(G)p.r(G)p.d(T)p.d(T)}|RNA2{r(C)p.r(C)p.r(A)p.r(U)p.r(G)p.r(G)p.r(C)p.r(G)p.r(U)p.r(U)p.r(G)p.r(C)p.r(C)p.r(G)p.r(A)p.r(U)p.r(A)p.r(A)p.r(A)p.d(G)p.d(G)}$$$RNA1{StrandType:ss}|RNA2{StrandType:as}$	36.7
RNA1{r(C)p.r(C)p.r(C)p.r(G)p.r(U)p.r(G)p.r(U)p.r(U)p.r(A)p.r(C)p.r(A)p.r(A)p.r(C)p.r(G)p.r(U)p.r(G)p.r(G)p.r(C)p.r(U)p.d(T)p.d(T)}|RNA2{r(A)p.r(G)p.r(C)p.r(C)p.r(A)p.r(C)p.r(G)p.r(U)p.r(U)p.r(G)p.r(U)p.r(A)p.r(A)p.r(C)p.r(A)p.r(C)p.r(G)p.r(G)p.r(G)p.d(C)p.d(G)}$$$RNA1{StrandType:ss}|RNA2{StrandType:as}$	75.8
RNA1{r(A)p.r(U)p.r(C)p.r(A)p.r(A)p.r(U)p.r(G)p.r(U)p.r(C)p.r(G)p.r(U)p.r(C)p.r(C)p.r(U)p.r(C)p.r(U)p.r(U)p.r(C)p.r(A)p.d(T)p.d(T)}|RNA2{r(U)p.r(G)p.r(A)p.r(A)p.r(G)p.r(A)p.r(G)p.r(G)p.r(A)p.r(C)p.r(G)p.r(A)p.r(C)p.r(A)p.r(U)p.r(U)p.r(G)p.r(A)p.r(U)p.d(G)p.d(A)}$$$RNA1{StrandType:ss}|RNA2{StrandType:as}$	49.2
